Experimental data reported in ChEMBL document CHEMBL5113535, “The Design, Synthesis, and Evaluation of Novel 9-Arylxanthenedione-Based Allosteric Modulators for the δ-Opioid Receptor” (J Med Chem, 2022).

target: T1, Delta-type opioid receptor (Homo sapiens, UniProt P41143); assay: Agonist activity at human DOR expressed in CHO cells assessed as […] in ERK1/2 phosphorylation level; format: functional, cell-based; conditions: not given
T1 sequence (P41143 whole entry): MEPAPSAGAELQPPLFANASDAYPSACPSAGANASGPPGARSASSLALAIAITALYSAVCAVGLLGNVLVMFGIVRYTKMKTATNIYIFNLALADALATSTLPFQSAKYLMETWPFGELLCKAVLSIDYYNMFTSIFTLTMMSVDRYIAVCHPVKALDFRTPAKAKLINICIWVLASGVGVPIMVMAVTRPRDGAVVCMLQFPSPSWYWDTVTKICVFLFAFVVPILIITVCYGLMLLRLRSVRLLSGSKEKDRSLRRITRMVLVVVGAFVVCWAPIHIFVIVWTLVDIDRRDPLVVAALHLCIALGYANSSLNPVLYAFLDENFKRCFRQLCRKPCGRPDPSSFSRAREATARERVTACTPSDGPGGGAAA

SMILES | EC50 [nM]
C=CCN1C[C@H](C)N([C@H](c2ccc(C(=O)NCC)cc2)c2cccc(OC)c2)C[C@H]1C | 43.7
CN1CC[C@@]2(c3cccc(O)c3)Cc3nc4ccccc4cc3C[C@@H]2C1 | 31.6

target: T1, Delta-type opioid receptor; conditions: CHO, filed as modulator, time 1.0 hrs

SMILES | pKb
CC1(C)CC(=O)C2=C(C1)OC1=C(C(=O)CC(C)(C)C1)C2c1ccc(OCc2ccccc2C2CC2)cc1 | 5.53
CC(C)c1ccccc1COc1ccc(C2C3=C(CC(C)(C)CC3=O)OC3=C2C(=O)CC(C)(C)C3)cc1 | 6.08
CC1(C)CC(=O)C2=C(C1)OC1=C(C(=O)CC(C)(C)C1)C2c1ccc(OCc2ccccc2Br)cc1 | 5.9
CC1(C)CC(=O)C2=C(C1)OC1=C(C(=O)CC(C)(C)C1)C2c1ccc(OCC2CCCC2)cc1 | 5.57
Cc1ccccc1COc1ccc(C2C3=C(CC(C)(C)CC3=O)OC3=C2C(=O)CC(C)(C)C3)cc1F | 6.01
CC1(C)CC(=O)C2=C(C1)OC1=C(C(=O)CC(C)(C)C1)C2c1ccc(OCC2CCC2)cc1 | 5.72
C#Cc1ccccc1COc1ccc(C2C3=C(CC(C)(C)CC3=O)OC3=C2C(=O)CC(C)(C)C3)cc1 | 6.18
Cc1ccccc1COc1ccc(C2C3=C(CC(C)(C)CC3=O)OC3=C2C(=O)CC(C)(C)C3)nc1 | 4.89
CCc1ccccc1COc1ccc(C2C3=C(CC(C)(C)CC3=O)OC3=C2C(=O)CC(C)(C)C3)cc1 | 5.5
CC1CC(=O)C2=C(C1)OC1=C(C(=O)CC(C)C1)C2c1ccc(OCC2CCCCC2)cc1 (configuration not stated) | 5.83
